A value given as a limit tells only on which side of the number the result lay.

The target of assay [1] is T1, catalytic domain (JH1, amino acids 826-1132) of human JAK2 (Homo sapiens, UniProt O60674).
T1 construct: catalytic domain (JH1, amino acids 826-1132) of human JAK2; FLAG (N); biotin (biotinylated); purchased Carna Biosciences 08-445-20N; host or cells: baculovirus expression system
Briefly: JAK2 LanthaScreen JH1 Binding Assay. The note with it: JAK2 JH1 1.5 nM, 50 nM tracer, 2 hours at 25° C.; read-out: JH1 BIND. The essentials:
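TR-FRET tracer-displacement format: compound IC50 from four-parameter curves after 2 h at 25° C. Reaction held 1.5 nM biotinylated, FLAG-tagged JH1 (aa 826-1132), 50 nM tracer, 0.5 nM Streptavidin-Tb, pH 7.5 Tris buffer; 2 mM ATP set nonspecific background.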

The target of assay [2] is T2, pseudo-kinase domain (JH2, amino-acids 536-812) of human V617F mutant JAK2 (Homo sapiens, UniProt O60674, F794H/V617F/W659A/W777A).
T2 construct: pseudo-kinase domain (JH2, amino-acids 536-812 with 3 surface mutations W659A, W777A, F794H); His (C); purchased BPS Bioscience 79498; host or cells: baculovirus expression system
Briefly: JAK2 LanthaScreen JH2-V617F Binding Assay. The note with it: JAK2 JH2-V617F 0.26 nM, 50 nM tracer, 1 hour at 25° C.; read-out: JH2 BIND V617F. The essentials:
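TR-FRET tracer displacement: 0.26 nM protein, 50 nM tracer, 0.25 nM SA-Tb, 50 mM Tris pH 7.5, 10 mM MgCl2, 5 mM DTT; 1 h, 25° C. NSB = 2 mM ATP. IC50, 4-parameter curve.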

In assay [3] the target is T3, pseudo-kinase domain (JH2, amino-acids 536-812) of human Wild Type JAK2 (Homo sapiens, UniProt O60674, F794H/W659A/W777A).
T3 construct: pseudo-kinase domain (JH2, amino-acids 536-812 with 3 surface mutations W659A, W777A, F794H); His (C); purchased BPS Bioscience 79463; host or cells: baculovirus expression system
Kind of assay: JAK2 LanthaScreen JH2-WT Binding Assay. The note with it: JAK2 JH2-WT 0.145 nM, 50 nM tracer, 1 hour at 25° C.; read-out: JH2 BIND WT. The essentials: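 Compounds, serially diluted, were mixed with 0.145 nM JH2 domain, 50 nM tracer and 0.25 nM streptavidin-Tb cryptate, then incubated 1 hour at 25° C before LanthaScreen reading. Wells containing 2 mM ATP defined non-specific binding. Four-parameter dose-response curves gave IC50.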
For orientation: In TR-FRET formats the signal depends on donor and acceptor labels being close together.

Assay [4] has as its target catalytic domain (JH1, amino acids 808-1132) of human JAK2 (Homo sapiens, UniProt O60674). Briefly: JAK2 HTRF Enzyme Activity Assay. Type of assay: biochemical. The conditions noted are these: ATP 30 µM, 60 minutes at 25° C.; read-out: V617F ENZ 30 UM.

T2 sequence (O60674 536-812 V617F/W659A/W777A/F794H): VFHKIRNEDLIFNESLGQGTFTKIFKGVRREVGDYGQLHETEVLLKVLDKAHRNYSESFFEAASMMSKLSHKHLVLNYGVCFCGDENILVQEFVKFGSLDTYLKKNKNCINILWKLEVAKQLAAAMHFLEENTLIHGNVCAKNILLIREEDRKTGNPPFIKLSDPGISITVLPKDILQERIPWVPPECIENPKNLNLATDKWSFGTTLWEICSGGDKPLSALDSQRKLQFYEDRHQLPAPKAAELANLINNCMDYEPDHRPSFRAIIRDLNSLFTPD
T1 sequence (O60674 826-1132): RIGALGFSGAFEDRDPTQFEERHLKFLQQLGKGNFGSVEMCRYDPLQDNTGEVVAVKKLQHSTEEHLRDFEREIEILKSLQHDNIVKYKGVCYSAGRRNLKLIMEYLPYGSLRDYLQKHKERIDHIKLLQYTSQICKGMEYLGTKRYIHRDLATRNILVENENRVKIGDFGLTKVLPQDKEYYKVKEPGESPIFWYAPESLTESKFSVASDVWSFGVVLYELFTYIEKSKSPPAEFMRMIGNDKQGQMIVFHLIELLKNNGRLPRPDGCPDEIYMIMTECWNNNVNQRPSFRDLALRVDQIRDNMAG
T3 sequence (O60674 536-812 W659A/W777A/F794H): as the sequence (O60674 536-812 V617F/W659A/W777A/F794H) above, with F82V counted along it
Sequence of catalytic domain (JH1, amino acids 808-1132) of human JAK2 (O60674 808-1132 limits assumed): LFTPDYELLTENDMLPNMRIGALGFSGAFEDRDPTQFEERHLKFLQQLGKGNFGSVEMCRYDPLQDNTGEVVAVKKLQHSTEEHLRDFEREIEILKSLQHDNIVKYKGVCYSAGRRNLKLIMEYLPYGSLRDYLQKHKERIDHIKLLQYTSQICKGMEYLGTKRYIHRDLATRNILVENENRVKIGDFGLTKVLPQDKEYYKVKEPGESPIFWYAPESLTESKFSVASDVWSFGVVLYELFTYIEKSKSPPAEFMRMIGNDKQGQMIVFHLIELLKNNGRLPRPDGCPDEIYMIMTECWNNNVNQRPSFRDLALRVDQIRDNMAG

For `[2H]C([2H])([2H])n1c(=O)n([C@@H]2CC[C@@H](NC(=O)OC)C2)c2cc(Nc3cc(-c4cnn(C)c4)cc(-c4ncc(C(C)(C)O)s4)n3)ncc21` [Example 107, Methyl ((1R,3R)-3-(6-((6-(5-(2-hydroxypropan-2-yl)thiazol-2-yl)-4-(1-methyl-1H-pyrazol-4-yl)pyridin-2-yl)amino)-3-(methyl-d3)-2-oxo-2,3-dihydro-1H-imidazo[4,5-c]pyridin-1-yl)cyclopentyl)carbamate], the IC50 is over 1000 nM in assay [1], at most 10 nM in assay [2], at most 10 nM in assay [3] and over 1000 nM in assay [4].
As to `COC(=O)N[C@@H]1CC[C@@H](n2c(=O)n(C)c3cnc(Nc4ccn(-c5ccncc5)n4)cc32)C1` [Example 81, Methyl ((1R,3R)-3-(3-methyl-2-oxo-6-((1-(pyridin-4-yl)-1H-pyrazol-3-yl)amino)-2,3-dihydro-1H-imidazo[4,5-c]pyridin-1-yl)cyclopentyl)carbamate], the IC50 was over 1000 nM in assay [1], 100 to 500 nM in assay [2], 100 to 500 nM in assay [3] and over 1000 nM in assay [4].
On to `COC(=O)N[C@@H]1CC[C@@H](n2c(=O)n(C)c3cnc(Nc4ccc(F)c(-c5ccc(C(F)(F)F)nc5)n4)cc32)C1` [Example 69, Methyl ((1R,3R)-3-(6-((3-fluoro-6′-(trifluoromethyl)-[2,3′-bipyridin]-6-yl)amino)-3-methyl-2-oxo-2,3-dihydro-1H-imidazo[4,5-c]pyridin-1-yl)cyclopentyl)carbamate], for which the IC50 is over 1000 nM in assay [1], at most 10 nM in assay [2], at most 10 nM in assay [3] and over 1000 nM in assay [4].
For `COC(=O)N[C@@H]1CC[C@@H](n2c(=O)n(C)c3cnc(Nc4cc(C)cc(-c5ccnc(OC)c5)n4)cc32)C1` [Example 67, Methyl ((1R,3R)-3-(6-((2′-methoxy-4-methyl-[2,4′-bipyridin]-6-yl)amino)-3-methyl-2-oxo-2,3-dihydro-1H-imidazo[4,5-c]pyridin-1-yl)cyclopentyl)carbamate], the IC50 was over 1000 nM in assay [1], at most 10 nM in assay [2], at most 10 nM in assay [3] and over 1000 nM in assay [4].
As to `COC(=O)N[C@@H]1CC[C@@H](n2c(=O)n(C)c3cnc(Nc4cccc(-c5ccc6ncccc6c5)n4)cc32)C1` [Example 9, Methyl ((1R,3R)-3-(3-methyl-2-oxo-6-((6-(quinolin-6-yl)pyridin-2-yl)amino)-2,3-dihydro-1H-imidazo[4,5-c]pyridin-1-yl)cyclopentyl)carbamate], the IC50 in assay [1] is over 1000 nM; in assay [2] it was at most 10 nM; in assay [3], at most 10 nM; in assay [4], over 1000 nM.
In the case of `COC(=O)N[C@@H]1CC[C@@H](n2c(=O)n(C)c3cnc(Nc4ccnc(N5CCC6(CC6)C5)n4)cc32)C1` [Example 77, Methyl ((1R,3R)-3-(6-((2-(5-azaspiro[2.4]heptan-5-yl)pyrimidin-4-yl)amino)-3-methyl-2-oxo-2,3-dihydro-1H-imidazo[4,5-c]pyridin-1-yl)cyclopentyl)carbamate], the IC50 in assay [1] was over 1000 nM; in assay [2] it was at most 10 nM; in assay [3], at most 10 nM; in assay [4], over 1000 nM.
On to `[2H]C([2H])([2H])n1c(=O)n([C@@H]2CC[C@@H](NC(=O)OC)C2)c2cc(Nc3ccc4ncc(C5CC5)n4n3)ncc21` [Example 54, Methyl ((1R,3R)-3-(6-((3-cyclopropylimidazo[1,2-b]pyridazin-6-yl)amino)-3-(methyl-d3)-2-oxo-2,3-dihydro-1H-imidazo[4,5-c]pyridin-1-yl)cyclopentyl)carbamate], for which the IC50 in assay [1] was over 1000 nM; in assay [2] it was at most 10 nM; in assay [3], at most 10 nM; in assay [4] it was over 1000 nM.
Take `COC(=O)N[C@@H]1CC[C@@H](n2c(=O)n(C)c3cnc(Nc4cccc(Oc5ccc6ncccc6c5)n4)cc32)C1` [Example 23, Methyl ((1R,3R)-3-(3-methyl-2-oxo-6-((6-(quinolin-6-yloxy)pyridin-2-yl)amino)-2,3-dihydro-1H-imidazo[4,5-c]pyridin-1-yl)cyclopentyl)carbamate]: the IC50 was over 1000 nM in assay [1], 10 to 100 nM in assay [2], 10 to 100 nM in assay [3] and over 1000 nM in assay [4].
In the case of `Cn1c(=O)n(C2CCOC2)c2cc(Nc3cc(NC(=O)OC4CCC4)cc(-c4cnn(C5CC5)c4)c3)ncc21` (stereo not shown) [Example 62, Cyclobutyl (3-(1-cyclopropyl-1H-pyrazol-4-yl)-5-((3-methyl-2-oxo-1-(tetrahydrofuran-3-yl)-2,3-dihydro-1H-imidazo[4,5-c]pyridin-6-yl)amino)phenyl)carbamate], the IC50 in assay [1] is over 1000 nM; in assay [2], 100 to 500 nM; in assay [3] it was 100 to 500 nM; in assay [4] it was over 1000 nM.
As for `[2H]C([2H])([2H])n1c(=O)n([C@@H]2CC[C@@H](NC(=O)OC)C2)c2cc(Nc3cc(C(=O)N4CC5CC4CO5)c4cccc(C(F)(F)F)c4n3)ncc21` (stereo partly drawn) [Example 12, Methyl ((1R,3R)-3-(6-((4-(2-oxa-5-azabicyclo[2.2.1]heptane-5-carbonyl)-8-(trifluoromethyl)quinolin-2-yl)amino)-3-(methyl-d3)-2-oxo-2,3-dihydro-1H-imidazo[4,5-c]pyridin-1-yl)cyclopentyl)carbamate], the IC50 was over 1000 nM in assay [1], at most 10 nM in assay [2], at most 10 nM in assay [3] and over 1000 nM in assay [4].
With `[2H]C([2H])([2H])n1c(=O)n([C@H]2CC[C@@](C)(NC(=O)C3CC3)CC2)c2cc(Nc3ccc4nn(C)c(-c5cnn(C(F)(F)F)c5)c4n3)ncc21` (single isomer, unassigned) [Example 91, N-((1s,4s)-1-Methyl-4-(3-(methyl-d3)-6-((2-methyl-3-(1-(trifluoromethyl)-1H-pyrazol-4-yl)-2H-pyrazolo[4,3-b]pyridin-5-yl)amino)-2-oxo-2,3-dihydro-1H-imidazo[4,5-c]pyridin-1-yl)cyclohexyl)cyclopropanecarboxamide], the IC50 in assay [1] was over 1000 nM; in assay [2] it was at most 10 nM; in assay [3], at most 10 nM; in assay [4], 10 to 100 nM.
Turning to `[2H]C([2H])([2H])n1c(=O)n([C@@H]2CC[C@@H](NC(=O)OC)C2)c2cc(Nc3ccc4cccc(C5(C)CC5)c4n3)ncc21` [Example 58, Methyl ((1R,3R)-3-(3-(methyl-d3)-6-((8-(1-methylcyclopropyl)quinolin-2-yl)amino)-2-oxo-2,3-dihydro-1H-imidazo[4,5-c]pyridin-1-yl)cyclopentyl)carbamate], the IC50 in assay [1] is over 1000 nM; in assay [2], at most 10 nM; in assay [3], at most 10 nM; in assay [4], over 1000 nM.
Take `COC(=O)N[C@@H]1CC[C@@H](n2c(=O)n(C)c3cnc(Nc4cc(NS(=O)(=O)C5CC(F)(F)C5)cc(C5CCOCC5)c4)cc32)C1` [Example 41, Methyl ((1R,3R)-3-(6-((3-((3,3-difluorocyclobutane)-1-sulfonamido)-5-(tetrahydro-2H-pyran-4-yl)phenyl)amino)-3-methyl-2-oxo-2,3-dihydro-1H-imidazo[4,5-c]pyridin-1-yl)cyclopentyl)carbamate]: the IC50 in assay [1] is over 1000 nM; in assay [2] it was 10 to 100 nM; in assay [3], 10 to 100 nM; in assay [4] it was over 1000 nM.

These data come from patent US20240317744A1, “Bicyclic Ureas As Kinase Inhibitors” (Incyte Corporation, priority 2023, published 2024).
